# Values of other authors in publication PMC10051811, “Plasma and Cerebrospinal Fluid Concentrations of Micafungin Administered at High Doses in Critically Ill Infants with Systemic Candidiasis: A Pooled Analysis of Two Studies” (Pharmaceuticals, 2023).
# *1 amine or outer side, *2 acyl side, *3 side chain or, on linkers, in order; H or OH if unused. Where a SMILES comes first, the peptide text is derived from it. Bridges are numbered along the chain shown (N, C = ends). [ ]: non-standard residue; d: D form. The star is where a group is joined. hTyr(3S-OH,4S-OH,3'-OSO3H) = N[C@H](C(=O)O)[C@H](O)[C@@H](O)c1ccc(O)c(OS(=O)(=O)O)c1; Orn(4R-OH,5R-OH) = O=C([C@H](C[C@@H](O)[C@@H](O)N[*:3])N[*:1])[*:2]; Pro(3S-OH,4S-Me) = C[C@H]1CN[C@H](C(=O)O)[C@H]1O; X1 = CCCCCOc1ccc(-c2cc(-c3ccc(C(=O)*)cc3)no2)cc1; Gln(3R-OH) = NC(=O)C[C@@H](O)[C@H](N)C(=O)O; Hyp = O=C(O)[C@@H]1C[C@@H](O)CN1
# Details: rabbit model of neonatal HCME; highest concentrations within meninges and choroid; ref 2 (Hope et al.); cited from earlier work
# Description: In extremely low-birth-weight infants (<1 kg at birth) with invasive candidiasis, the probability of the central nervous system involvement during infection varies from 45% to 63% of cases. Micafungin concentration values in CSF are difficult to obtain if an external shunt has not been placed previously. Moreover, interpreting these values in vivo is not easy, considering that the fungal involvement of the central nervous system in neonatal age is typically hematogenous Candida meningoencephalitis (HCME). Hope et al. studied the pharmacokinetics and pharmacodynamics of micafungin in a r ...
compound,measurement,value
"CCCCCOc1ccc(-c2cc(-c3ccc(C(=O)N[C@H]4C[C@@H](O)[C@@H](O)NC(=O)[C@@H]5[C@@H](O)[C@@H](C)CN5C(=O)[C@H]([C@H](O)CC(N)=O)NC(=O)[C@H]([C@H](O)[C@@H](O)c5ccc(O)c(OS(=O)(=O)O)c5)NC(=O)[C@@H]5C[C@@H](O)CN5C(=O)[C@H]([C@@H](C)O)NC4=O)cc3)no2)cc1 [micafungin] (X1-[Orn(4R-OH,5R-OH)]T[Hyp][hTyr(3S-OH,4S-OH,3'-OSO3H)][Gln(3R-OH)][Pro(3S-OH,4S-Me)]; lactam 1-C)",Detection of micafungin within the CSF,not reliably detected
